Reference: patent publication US9745308B2, “Pyridazinone derivatives as phoshoinositide 3-kinases inhibitors” (CHIESI FARMACEUTICI S.p.A., priority 2014, dated 2017)

Tests used:
PI3Kβ = PI3Kβ (Homo sapiens, UniProt P42338); assay: PI3K enzyme inhibitory activity in the cell free assay (ADP-Glo Kinase Assay), PI3K beta
PI3Kδ = PI3Kδ (Homo sapiens, UniProt O00329); assay: PI3K enzyme inhibitory activity in the cell free assay (ADP-Glo Kinase Assay), PI3K delta
PI3Kγ = PI3Kγ (Homo sapiens, UniProt P48736); assay: PI3K enzyme inhibitory activity in the cell free assay (ADP-Glo Kinase Assay), PI3K gamma
PI3Kγ, sequence (P48736 whole entry): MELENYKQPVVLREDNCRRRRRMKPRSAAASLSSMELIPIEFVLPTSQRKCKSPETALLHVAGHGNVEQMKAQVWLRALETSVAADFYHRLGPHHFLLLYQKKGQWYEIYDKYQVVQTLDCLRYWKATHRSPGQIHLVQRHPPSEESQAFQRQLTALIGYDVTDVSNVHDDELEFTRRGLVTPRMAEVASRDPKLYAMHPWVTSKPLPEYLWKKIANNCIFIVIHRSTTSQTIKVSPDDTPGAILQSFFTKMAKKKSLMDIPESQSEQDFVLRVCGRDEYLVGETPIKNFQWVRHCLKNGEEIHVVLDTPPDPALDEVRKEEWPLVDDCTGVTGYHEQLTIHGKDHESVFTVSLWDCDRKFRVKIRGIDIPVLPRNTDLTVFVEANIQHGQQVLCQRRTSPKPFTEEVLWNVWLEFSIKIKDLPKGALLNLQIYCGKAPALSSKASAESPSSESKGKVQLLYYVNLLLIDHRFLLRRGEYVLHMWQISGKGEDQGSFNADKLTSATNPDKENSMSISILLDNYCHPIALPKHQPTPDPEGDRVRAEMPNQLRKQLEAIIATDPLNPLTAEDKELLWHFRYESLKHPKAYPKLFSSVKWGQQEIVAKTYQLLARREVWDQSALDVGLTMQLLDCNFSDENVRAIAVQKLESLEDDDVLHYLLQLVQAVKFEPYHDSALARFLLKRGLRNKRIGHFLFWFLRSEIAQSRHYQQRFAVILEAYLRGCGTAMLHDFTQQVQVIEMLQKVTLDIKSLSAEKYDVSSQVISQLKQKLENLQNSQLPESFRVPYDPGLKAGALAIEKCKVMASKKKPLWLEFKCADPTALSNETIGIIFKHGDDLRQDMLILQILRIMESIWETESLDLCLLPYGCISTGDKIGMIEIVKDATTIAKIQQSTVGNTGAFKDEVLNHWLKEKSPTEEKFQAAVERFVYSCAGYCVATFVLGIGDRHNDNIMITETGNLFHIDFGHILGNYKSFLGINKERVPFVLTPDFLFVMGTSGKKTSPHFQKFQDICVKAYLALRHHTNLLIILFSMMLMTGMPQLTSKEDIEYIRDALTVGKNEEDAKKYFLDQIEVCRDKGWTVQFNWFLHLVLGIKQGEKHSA

PI3Kα = PI3Kα (Homo sapiens, UniProt P42336); assay: PI3K enzyme inhibitory activity in the cell free assay (ADP-Glo Kinase Assay), PI3K alpha
PI3Kα, sequence (P42336 whole entry): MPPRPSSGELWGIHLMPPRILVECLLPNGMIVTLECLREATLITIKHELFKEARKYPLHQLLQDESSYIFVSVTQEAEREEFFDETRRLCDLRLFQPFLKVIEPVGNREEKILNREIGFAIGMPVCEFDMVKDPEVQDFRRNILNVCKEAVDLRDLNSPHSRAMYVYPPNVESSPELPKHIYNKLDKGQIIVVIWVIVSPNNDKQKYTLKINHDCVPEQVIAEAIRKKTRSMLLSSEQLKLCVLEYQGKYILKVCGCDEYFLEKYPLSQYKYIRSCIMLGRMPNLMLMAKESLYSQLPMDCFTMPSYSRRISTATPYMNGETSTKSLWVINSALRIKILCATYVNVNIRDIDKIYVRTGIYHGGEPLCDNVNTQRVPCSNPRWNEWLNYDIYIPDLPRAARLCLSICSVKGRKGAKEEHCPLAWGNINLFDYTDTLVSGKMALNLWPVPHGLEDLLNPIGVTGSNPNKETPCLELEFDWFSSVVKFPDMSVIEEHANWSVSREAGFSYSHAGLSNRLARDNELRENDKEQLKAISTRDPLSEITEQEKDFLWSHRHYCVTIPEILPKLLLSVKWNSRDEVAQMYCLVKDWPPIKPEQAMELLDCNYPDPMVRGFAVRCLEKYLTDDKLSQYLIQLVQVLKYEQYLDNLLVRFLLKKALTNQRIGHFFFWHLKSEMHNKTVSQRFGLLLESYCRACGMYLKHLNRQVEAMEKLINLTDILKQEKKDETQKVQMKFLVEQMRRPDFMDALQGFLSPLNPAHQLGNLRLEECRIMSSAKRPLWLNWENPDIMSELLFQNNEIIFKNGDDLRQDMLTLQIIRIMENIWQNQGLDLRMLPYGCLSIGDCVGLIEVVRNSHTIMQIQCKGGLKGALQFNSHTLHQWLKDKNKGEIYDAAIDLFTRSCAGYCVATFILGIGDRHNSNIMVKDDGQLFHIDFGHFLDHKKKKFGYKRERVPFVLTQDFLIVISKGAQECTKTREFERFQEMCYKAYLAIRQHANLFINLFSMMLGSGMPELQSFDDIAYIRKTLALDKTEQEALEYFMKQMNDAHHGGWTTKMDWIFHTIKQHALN
PI3Kα, sequence (P27986 whole entry partner): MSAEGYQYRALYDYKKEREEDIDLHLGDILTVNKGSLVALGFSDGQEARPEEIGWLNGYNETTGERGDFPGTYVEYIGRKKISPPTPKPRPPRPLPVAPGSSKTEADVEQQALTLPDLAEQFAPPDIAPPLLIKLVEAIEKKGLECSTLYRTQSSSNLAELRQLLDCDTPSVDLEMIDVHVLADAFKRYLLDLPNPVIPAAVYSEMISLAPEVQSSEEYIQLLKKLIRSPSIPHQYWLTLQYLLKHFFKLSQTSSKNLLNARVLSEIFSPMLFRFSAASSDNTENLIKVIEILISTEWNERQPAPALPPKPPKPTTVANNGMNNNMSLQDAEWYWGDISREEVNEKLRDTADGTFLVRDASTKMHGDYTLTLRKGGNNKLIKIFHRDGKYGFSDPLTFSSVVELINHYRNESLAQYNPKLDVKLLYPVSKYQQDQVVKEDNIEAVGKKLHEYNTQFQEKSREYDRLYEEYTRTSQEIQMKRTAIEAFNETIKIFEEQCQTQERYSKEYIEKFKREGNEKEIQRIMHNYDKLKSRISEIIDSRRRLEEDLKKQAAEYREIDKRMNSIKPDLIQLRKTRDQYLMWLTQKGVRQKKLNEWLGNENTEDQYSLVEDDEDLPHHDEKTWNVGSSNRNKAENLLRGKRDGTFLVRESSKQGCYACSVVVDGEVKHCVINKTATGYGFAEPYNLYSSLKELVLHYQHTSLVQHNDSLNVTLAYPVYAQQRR

PI3Kβ, sequence (P42338 whole entry): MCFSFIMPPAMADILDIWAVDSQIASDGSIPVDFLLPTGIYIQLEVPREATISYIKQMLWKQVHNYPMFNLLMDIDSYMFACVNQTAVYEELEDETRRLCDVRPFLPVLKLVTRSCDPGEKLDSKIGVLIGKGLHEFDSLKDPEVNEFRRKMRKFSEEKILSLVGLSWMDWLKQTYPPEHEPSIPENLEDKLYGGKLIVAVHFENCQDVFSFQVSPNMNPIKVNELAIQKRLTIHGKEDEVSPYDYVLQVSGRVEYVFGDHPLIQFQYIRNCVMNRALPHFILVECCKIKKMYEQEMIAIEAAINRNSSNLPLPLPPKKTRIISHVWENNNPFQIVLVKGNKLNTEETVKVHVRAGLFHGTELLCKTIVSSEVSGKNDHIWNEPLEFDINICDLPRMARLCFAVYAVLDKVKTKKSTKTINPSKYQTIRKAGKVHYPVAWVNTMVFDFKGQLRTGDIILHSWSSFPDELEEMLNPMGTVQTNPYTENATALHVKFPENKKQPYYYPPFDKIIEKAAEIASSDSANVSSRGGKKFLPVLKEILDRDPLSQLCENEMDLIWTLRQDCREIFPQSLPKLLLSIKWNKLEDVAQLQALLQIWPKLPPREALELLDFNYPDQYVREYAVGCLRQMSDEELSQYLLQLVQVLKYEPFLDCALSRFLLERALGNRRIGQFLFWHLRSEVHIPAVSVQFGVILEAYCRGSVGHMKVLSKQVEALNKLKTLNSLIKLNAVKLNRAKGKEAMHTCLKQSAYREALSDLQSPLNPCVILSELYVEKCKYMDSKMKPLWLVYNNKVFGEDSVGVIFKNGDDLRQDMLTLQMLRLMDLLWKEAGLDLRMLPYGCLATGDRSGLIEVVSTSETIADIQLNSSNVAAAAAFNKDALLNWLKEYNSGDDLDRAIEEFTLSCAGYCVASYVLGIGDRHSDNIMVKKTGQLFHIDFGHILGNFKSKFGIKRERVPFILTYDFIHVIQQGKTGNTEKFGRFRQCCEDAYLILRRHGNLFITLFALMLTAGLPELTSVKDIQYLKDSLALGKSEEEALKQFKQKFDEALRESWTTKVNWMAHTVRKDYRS
PI3Kβ, sequence (P27986 whole entry partner): as the sequence (P27986 whole entry partner) above
PI3Kδ, sequence (O00329 whole entry): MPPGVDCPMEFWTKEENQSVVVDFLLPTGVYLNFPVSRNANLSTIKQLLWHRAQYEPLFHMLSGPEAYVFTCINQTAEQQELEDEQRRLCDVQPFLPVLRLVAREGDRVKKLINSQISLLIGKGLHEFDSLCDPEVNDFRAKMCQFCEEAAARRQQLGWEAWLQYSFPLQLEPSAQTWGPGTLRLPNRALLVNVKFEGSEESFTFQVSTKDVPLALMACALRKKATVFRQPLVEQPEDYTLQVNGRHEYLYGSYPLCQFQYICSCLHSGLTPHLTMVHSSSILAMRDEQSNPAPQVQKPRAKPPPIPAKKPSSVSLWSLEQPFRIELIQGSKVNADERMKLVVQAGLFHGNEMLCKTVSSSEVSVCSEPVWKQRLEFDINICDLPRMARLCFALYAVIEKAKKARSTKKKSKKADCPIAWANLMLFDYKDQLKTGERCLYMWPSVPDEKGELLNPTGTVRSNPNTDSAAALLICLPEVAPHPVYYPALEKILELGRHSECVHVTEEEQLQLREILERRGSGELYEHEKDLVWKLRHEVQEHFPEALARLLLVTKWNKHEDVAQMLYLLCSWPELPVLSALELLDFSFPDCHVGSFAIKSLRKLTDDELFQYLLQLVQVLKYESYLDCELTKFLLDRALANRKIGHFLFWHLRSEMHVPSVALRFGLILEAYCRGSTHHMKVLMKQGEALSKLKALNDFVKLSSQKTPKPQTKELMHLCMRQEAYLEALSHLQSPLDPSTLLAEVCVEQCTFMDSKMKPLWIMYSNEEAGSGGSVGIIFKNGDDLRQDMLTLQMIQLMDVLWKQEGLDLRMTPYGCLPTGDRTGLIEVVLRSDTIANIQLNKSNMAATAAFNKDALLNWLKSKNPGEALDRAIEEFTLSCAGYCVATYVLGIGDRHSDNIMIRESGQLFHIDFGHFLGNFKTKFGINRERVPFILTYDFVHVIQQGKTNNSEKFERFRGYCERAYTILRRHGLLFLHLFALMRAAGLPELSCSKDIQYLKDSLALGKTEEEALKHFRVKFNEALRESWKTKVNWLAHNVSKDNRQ
PI3Kδ, sequence (P27986 whole entry partner): as the sequence (P27986 whole entry partner) above

Structure (SMILES)	IC50 (PI3Kβ)	IC50 (PI3Kδ)	IC50 (PI3Kγ)	IC50 (PI3Kα)
CC(c1cnn(-c2ccccc2)c(=O)c1-c1ccccc1)n1nc(-c2cc(O)cc(F)c2)c2c(N)ncnc21 (centres unmarked) [Example 13, 5-{1-[4-amino-3-(3-fluoro-5-hydroxyphenyl)-1H-pyrazolo[3,4-d]pyrimidin-1-yl]ethyl}-2,4-diphenyl-2,3-dihydropyridazin-3-one]	10 to 1000 nM	10 to 1000 nM	10 to 1000 nM	10 to 1000 nM
CC(c1cnn(CCN2CCOCC2)c(=O)c1-c1ccccc1)n1nc(-c2cc(O)cc(F)c2)c2c(N)ncnc21 (centres unmarked) [Example 14, 5-{1-[4-amino-3-(3-fluoro-5-hydroxyphenyl)-1H-pyrazolo[3,4-d]pyrimidin-1-yl]ethyl}-2-[2-(morpholin-4-yl)ethyl]-4-phenyl-2,3-dihydropyridazin-3-one]	> 1000 nM	< 10 nM	> 1000 nM	> 1000 nM
CC(c1cnn(-c2cccnc2)c(=O)c1-c1ccccc1)n1nc(-c2cc(O)cc(F)c2)c2c(N)ncnc21 (centres unmarked) [Example 15, 5-{1-[4-amino-3-(3-fluoro-5-hydroxyphenyl)-1H-pyrazolo[3,4-d]pyrimidin-1-yl]ethyl}-4-phenyl-2-(pyridin-3-yl)-2,3-dihydropyridazin-3-one]	10 to 1000 nM	< 10 nM	10 to 1000 nM	> 1000 nM
Nc1ncnc2c1c(-c1cc(O)cc(F)c1)nn2Cc1cnn(Cc2ccccc2)c(=O)c1 [Example 18, 5-{[4-amino-3-(3-fluoro-5-hydroxyphenyl)-1H-pyrazolo[3,4-d]pyrimidin-1-yl]methyl}-2-benzyl-2,3-dihydropyridazin-3-one]	10 to 1000 nM	< 10 nM	10 to 1000 nM	10 to 1000 nM
CC(Nc1ncnc(N)c1C#N)c1cc(=O)n(Cc2ccccc2)nc1-c1ccccc1 (centres unmarked) [Example 19, 4-amino-6-{[1-(1-benzyl-6-oxo-3-phenyl-1,6-dihydropyridazin-4-yl)ethyl]amino}pyrimidine-5-carbonitrile]	> 1000 nM	> 1000 nM	> 1000 nM	> 1000 nM
CC(Nc1ncnc(N)c1C#N)c1cc(=O)n(C)nc1-c1ccccc1 (centres unmarked) [Example 20, 4-amino-6-(1-(1-methyl-6-oxo-3-phenyl-1,6-dihydropyridazin-4-yl)ethylamino)pyrimidine-5-carbonitrile]	> 1000 nM	10 to 1000 nM	> 1000 nM	> 1000 nM
CC(Nc1ncnc(N)c1C#N)c1cc(=O)n(C(C)C)nc1-c1ccccc1 (centres unmarked) [Example 21, 4-amino-6-({1-[6-oxo-3-phenyl-1-(propan-2-yl)-1,6-dihydropyridazin-4-yl]ethyl}amino)pyrimidine-5-carbonitrile]	> 1000 nM	> 1000 nM	> 1000 nM	> 1000 nM
CC(Nc1ncnc(N)c1C#N)c1cc(=O)n(CC2CC2)nc1-c1ccccc1 (centres unmarked) [Example 22, 4-amino-6-({1-[1-(cyclopropylmethyl)-6-oxo-3-phenyl-1,6-dihydropyridazin-4-yl]ethyl}amino)pyrimidine-5-carbonitrile]	> 1000 nM	> 1000 nM	> 1000 nM	> 1000 nM
CC(Nc1ncnc(N)c1C#N)c1cc(=O)n(-c2ccccc2)nc1-c1ccccc1 (centres unmarked) [Example 23, 4-amino-6-{[1-(6-oxo-1,3-diphenyl-1,6-dihydropyridazin-4-yl)ethyl]amino}pyrimidine-5-carbonitrile]	> 1000 nM	> 1000 nM	> 1000 nM	> 1000 nM
CC(Nc1ncnc2[nH]cnc12)c1cc(=O)n(Cc2ccccc2)nc1-c1ccccc1 (centres unmarked) [Example 24, 2-benzyl-6-phenyl-5-{1-[(9H-purin-6-yl)amino]ethyl}-2,3-dihydropyridazin-3-one]	> 1000 nM	> 1000 nM	> 1000 nM	> 1000 nM

Other lines, results leading:

IC50 (PI3Kβ)	IC50 (PI3Kδ)	IC50 (PI3Kγ)	IC50 (PI3Kα)	Structure (SMILES)
10 to 1000 nM	10 to 1000 nM	> 1000 nM	> 1000 nM	CC(c1cc(=O)n(Cc2ccccc2)nc1-c1ccccc1)n1nc(-c2cc(O)cc(F)c2)c2c(N)ncnc21 (centres unmarked) [Example 1, 5-{1-[4-amino-3-(3-fluoro-5-hydroxyphenyl)-1H-pyrazolo[3,4-d]pyrimidin-1-yl]ethyl}-2-benzyl-6-phenyl-2,3-dihydropyridazin-3-one]
10 to 1000 nM	10 to 1000 nM	10 to 1000 nM	> 1000 nM	CC(c1cc(=O)n(C)nc1-c1ccccc1)n1nc(-c2cc(O)cc(F)c2)c2c(N)ncnc21 (centres unmarked) [Example 2, 5-{1-[4-amino-3-(3-fluoro-5-hydroxyphenyl)-1H-pyrazolo[3,4-d]pyrimidin-1-yl]ethyl}-2-methyl-6-phenyl-2,3-dihydropyridazin-3-one]
10 to 1000 nM	10 to 1000 nM	> 1000 nM	> 1000 nM	CC(C)n1nc(-c2ccccc2)c(C(C)n2nc(-c3cc(O)cc(F)c3)c3c(N)ncnc32)cc1=O (centres unmarked) [Example 3, 5-{1-[4-amino-3-(3-fluoro-5-hydroxyphenyl)-1H-pyrazolo[3,4-d]pyrimidin-1-yl]ethyl}-6-phenyl-2-(propan-2-yl)-2,3-dihydropyridazin-3-one]
10 to 1000 nM	10 to 1000 nM	> 1000 nM	> 1000 nM	CC(c1cc(=O)n(CC2CC2)nc1-c1ccccc1)n1nc(-c2cc(O)cc(F)c2)c2c(N)ncnc21 (centres unmarked) [Example 4, 5-{1-[4-amino-3-(3-fluoro-5-hydroxyphenyl)-1H-pyrazolo[3,4-d]pyrimidin-1-yl]ethyl}-2-(cyclopropylmethyl)-6-phenyl-2,3-dihydropyridazin-3-one]
10 to 1000 nM	10 to 1000 nM	10 to 1000 nM	> 1000 nM	CC(c1cc(=O)n(-c2ccccc2)nc1-c1ccccc1)n1nc(-c2cc(O)cc(F)c2)c2c(N)ncnc21 (centres unmarked) [Example 5, 5-{1-[4-amino-3-(3-fluoro-5-hydroxyphenyl)-1H-pyrazolo[3,4-d]pyrimidin-1-yl]ethyl}-2,6-diphenyl-2,3-dihydropyridazin-3-one]
10 to 1000 nM	10 to 1000 nM	> 1000 nM	> 1000 nM	CC(c1cc(=O)n(Cc2ccccn2)nc1-c1ccccc1)n1nc(-c2cc(O)cc(F)c2)c2c(N)ncnc21 (centres unmarked) [Example 6, 5-{1-[4-amino-3-(3-fluoro-5-hydroxyphenyl)-1H-pyrazolo[3,4-d]pyrimidin-1-yl]ethyl}-6-phenyl-2-(pyridin-2-ylmethyl)-2,3-dihydropyridazin-3-one]
< 10 nM	< 10 nM	10 to 1000 nM	10 to 1000 nM	CC(c1cnn(Cc2ccccc2)c(=O)c1)n1nc(-c2cc(O)cc(F)c2)c2c(N)ncnc21 (centres unmarked) [Example 7, 5-{1-[4-amino-3-(3-fluoro-5-hydroxyphenyl)-1H-pyrazolo[3,4-d]pyrimidin-1-yl]ethyl}-2-benzyl-2,3-dihydropyridazin-3-one]
< 10 nM	< 10 nM	10 to 1000 nM	10 to 1000 nM	CC(c1cnn(-c2ccccc2)c(=O)c1)n1nc(-c2cc(O)cc(F)c2)c2c(N)ncnc21 (centres unmarked) [Example 8, 5-{1-[4-amino-3-(3-fluoro-5-hydroxyphenyl)-1H-pyrazolo[3,4-d]pyrimidin-1-yl]ethyl}-2-phenyl-2,3-dihydropyridazin-3-one]
10 to 1000 nM	< 10 nM	10 to 1000 nM	10 to 1000 nM	CC(c1cnn(C)c(=O)c1)n1nc(-c2cc(O)cc(F)c2)c2c(N)ncnc21 (centres unmarked) [Example 9, 5-{1-[4-amino-3-(3-fluoro-5-hydroxyphenyl)-1H-pyrazolo[3,4-d]pyrimidin-1-yl]ethyl}-2-methyl-2,3-dihydropyridazin-3-one]
10 to 1000 nM	< 10 nM	10 to 1000 nM	> 1000 nM	CC(c1cnn(C)c(=O)c1-c1ccccc1)n1nc(-c2cc(O)cc(F)c2)c2c(N)ncnc21 (centres unmarked) [Example 12, 5-{1-[4-amino-3-(3-fluoro-5-hydroxyphenyl)-1H-pyrazolo[3,4-d]pyrimidin-1-yl]ethyl}-2-methyl-4-phenyl-2,3-dihydropyridazin-3-one]
